Reference: PubChem BioAssay AID2060627 (Molecular Pharmacology Branch, DTP, NCI, 2025)

System: 156681-154-R-J1-PDC complex spheroid viability
Assay: Anticancer human tumor 156681-154-R-J1-PDC patient-derived melanoma cell line growth inhibition [CLK]
Conditions: for IC50: curve of first compound; for viability, T/C: stronger effect = lower value; active means viability on the fitted dose curve at most 10% of control; inactive means the rest
Outline: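 Patient-derived tumor cells grown as complex spheroids with HUVEC endothelial cells and mesenchymal stem cells, treated with drug combinations. Concentrations descend in half-log steps from near clinical Cmax, or from 10 microM if Cmax unknown.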

[1] = second compound 0.0316 µM, first compound 0.0316 µM
[2] = second compound 0.0316 µM, first compound 0.1 µM
[3] = second compound 0.0316 µM, first compound 0.316 µM
[4] = second compound 0.0316 µM, first compound 1 µM
[5] = second compound 0.1 µM, first compound 0.0316 µM
[6] = second compound 0.1 µM, first compound 0.1 µM
[7] = second compound 0.1 µM, first compound 0.316 µM
[8] = second compound 0.1 µM, first compound 1 µM
[9] = second compound 0.316 µM, first compound 0.0316 µM
[10] = second compound 0.316 µM, first compound 0.1 µM
[11] = second compound 0.316 µM, first compound 0.316 µM
[12] = second compound 0.316 µM, first compound 1 µM
[13] = second compound 1 µM, first compound 0.0316 µM
[14] = second compound 1 µM, first compound 0.1 µM
[15] = second compound 1 µM, first compound 0.316 µM
[16] = second compound 1 µM, first compound 1 µM
[17] = second compound 3.16 µM, first compound 0.0316 µM
[18] = second compound 3.16 µM, first compound 0.1 µM
[19] = second compound 3.16 µM, first compound 0.316 µM
[20] = second compound 3.16 µM, first compound 1 µM
[21] = second compound 10 µM, first compound 0.0316 µM
[22] = second compound 10 µM, first compound 0.1 µM
[23] = second compound 10 µM, first compound 0.316 µM
[24] = second compound 10 µM, first compound 1 µM
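Further: spheroids exposed to the agents for seven days.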
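Wherever viability, T/C is given: 100% = DMSO vehicle control viability.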

CC(Nc1ccc2c(c1)OCCn1cc(N3C(=O)OCC3C(F)F)nc1-2)C(N)=O (centres undefined) + CN1CCN(c2cc(C(=O)Nc3cc4cc(-c5cnn(C)c5)ccc4cn3)ccn2)CC1
active: viability, T/C [12] 6.71% | viability, T/C (second compound 0.316 µM, first compound 3.16 µM) 4.44% | viability, T/C (second compound 0.316 µM, first compound 10 µM) 4.8% | viability, T/C [13] 0.14% | viability, T/C [14] 0.42% | viability, T/C [15] 0.1% | viability, T/C [16] 0.05% | viability, T/C (second compound 1 µM, first compound 3.16 µM) 0.4% | viability, T/C (second compound 1 µM, first compound 10 µM) 0.2% | viability, T/C [17] 0.05% | viability, T/C [18] 1.73% | viability, T/C [19] 2.06% | viability, T/C [20] 0.08% | viability, T/C (second compound 3.16 µM, first compound 3.16 µM) 1.56% | viability, T/C (second compound 3.16 µM, first compound 10 µM) 1.84% | viability, T/C [21] 0.11% | viability, T/C [22] 0.1% | viability, T/C [23] 1.26% | viability, T/C [24] 2.64% | viability, T/C (second compound 10 µM, first compound 3.16 µM) 2.45% | viability, T/C (second compound 10 µM, first compound 10 µM) 1.35%
inactive: viability, T/C [1] 85.4% | viability, T/C [2] 67% | viability, T/C [3] 49.4% | viability, T/C [4] 34% | viability, T/C (second compound 0.0316 µM, first compound 3.16 µM) 30% | viability, T/C (second compound 0.0316 µM, first compound 10 µM) 20% | viability, T/C [5] 73.4% | viability, T/C [6] 65.6% | viability, T/C [7] 43.5% | viability, T/C [8] 29.9% | viability, T/C (second compound 0.1 µM, first compound 3.16 µM) 20% | viability, T/C (second compound 0.1 µM, first compound 10 µM) 13.7% | viability, T/C [9] 21.1% | viability, T/C [10] 15.7% | viability, T/C [11] 15%
302 nM: IC50 (second compound 0.0316 µM)
241 nM: IC50 (second compound 0.1 µM)
< 31.6 nM: IC50 (second compound 0.316 µM) | IC50 (second compound 1 µM) | IC50 (second compound 3.16 µM) | IC50 (second compound 10 µM)

CCN1CCN(Cc2ccc(Nc3ncc(F)c(-c4cc(F)c5nc(C)n(C(C)C)c5c4)n3)nc2)CC1 + CN1CCN(c2cc(C(=O)Nc3cc4cc(-c5cnn(C)c5)ccc4cn3)ccn2)CC1
665 nM: IC50 (second compound 0.0316 µM)
active: viability, T/C (second compound 1 µM, first compound 0.00316 µM) 0.15% | viability, T/C (second compound 1 µM, first compound 0.01 µM) 0.55% | viability, T/C [13] 3.58% | viability, T/C [14] 0.43% | viability, T/C [15] 1.38% | viability, T/C [16] 0.47% | viability, T/C (second compound 3.16 µM, first compound 0.00316 µM) 0.8% | viability, T/C (second compound 3.16 µM, first compound 0.01 µM) 1.88% | viability, T/C [17] 0.12% | viability, T/C [18] 1.66% | viability, T/C [19] 2.74% | viability, T/C [20] 1.56% | viability, T/C (second compound 10 µM, first compound 0.00316 µM) 0.1% | viability, T/C (second compound 10 µM, first compound 0.01 µM) 0.55% | viability, T/C [21] 0.69% | viability, T/C [22] 0.18% | viability, T/C [23] 0.5% | viability, T/C [24] 3.25%
inactive: viability, T/C (second compound 0.0316 µM, first compound 0.00316 µM) 97% | viability, T/C (second compound 0.0316 µM, first compound 0.01 µM) 94.9% | viability, T/C [1] 87.5% | viability, T/C [2] 77.6% | viability, T/C [3] 71.8% | viability, T/C [4] 39.1% | viability, T/C (second compound 0.1 µM, first compound 0.00316 µM) 96.2% | viability, T/C (second compound 0.1 µM, first compound 0.01 µM) 76.2% | viability, T/C [5] 70.6% | viability, T/C [6] 89.9% | viability, T/C [7] 67.2% | viability, T/C [8] 46.1% | viability, T/C (second compound 0.316 µM, first compound 0.00316 µM) 21.6% | viability, T/C (second compound 0.316 µM, first compound 0.01 µM) 21.1% | viability, T/C [9] 17.8% | viability, T/C [10] 23.1% | viability, T/C [11] 18.7% | viability, T/C [12] 9.12%
< 3.16 nM: IC50 (second compound 0.316 µM) | IC50 (second compound 1 µM) | IC50 (second compound 3.16 µM) | IC50 (second compound 10 µM)
807 nM: IC50 (second compound 0.1 µM)
